Laboratory results from the SangsterLogP compilation.

Test: not given
Conditions: not given

Row | Compound | logP
1 | COc1ccccc1NCC(N)=O | 0.63
2 | COc1ccccc1NCCO | 1.07
3 | COc1ccccc1NC(C)=O | 1.02
4 | CC(C)Nc1ccccc1C(N)=O | 1.87
5 | CC(=O)Nc1ccccc1C(C)=O | 1.4
6 | NC(=O)c1ccccc1NC(=O)C(Cl)Cl | 1.51
7 | CC(=O)Nc1ccccc1C(N)=O | 0.31
8 | CC(=O)c1ccccc1NCCO | 1.28

Test: method code SF-AS, from Lembo, S.; Sasso, V.; Silipo, C.; Vittoria, A. (1983). Physicochemical properties and drug design in a set of analgesics. Farmaco [Sci], 38(10)750-761.
Conditions: pH 7.4

Row | Compound | logD
9 | CCCCNc1ccccc1C(N)=O | 2.33
10 | CCCCNc1ccccc1OC | 2.85
11 | CC(=O)c1ccccc1NCC#N | 1.58
12 | CC(=O)c1ccccc1NC(=O)C(Cl)Cl | 2.65
13 | N#CCNc1ccccc1C(N)=O | 0.5
14 | CC(=O)CNc1ccccc1C(N)=O | 0.61
15 | COc1ccccc1NCC#N | 1.3
16 | COc1ccccc1NCC(C)=O | 1.49
17 | COc1ccccc1NC(=O)C(Cl)Cl | 2.41
